Experimental data taken from patent publication US6706855B1, “Antimicrobial polymer” (Avecia Limited, priority 1999, dated 2004).

How the values were obtained:
[1] = test system: Escherichia coli NCIB 9132; assay: Minimum Inhibitory Concentration (MIC) against Escherichia coli; type: cell-based; conditions: Bacteria
Procedure: (§1) The Minimum Inhibitory Concentration (MIC) against a range of fungi and bacteria were determined for each of the antimicrobial copolymers prepared in Examples 1 to 4 and Comparative Example A. The MIC results are shown in Table 3: […]

[2] = test system: Staphylococcus aureus NCIB 9518; assay: Minimum Inhibitory Concentration (MIC) against Staphylococcus aureus; type: cell-based; conditions: Bacteria
Procedure: as §1

[3] = test system: Candida albicans NCYC 10231; assay: Minimum Inhibitory Concentration (MIC) against Candida albicans; type: cell-based; conditions: Fungi
Procedure: as §1

[4] = test system: Penicillium funiculosum IMI 114933; assay: Minimum Inhibitory Concentration (MIC) against Penicillium funiculosum; type: cell-based; conditions: Fungi
Procedure: as §1

[5] = test system: Bacillus subtilis NCIB 1650; assay: Minimum Inhibitory Concentration (MIC) against Bacillus subtilis; type: cell-based; conditions: Bacteria
Procedure: as §1

[6] = test system: Pseudomonas fluorescens (with Lux AB gene) our ref D481; assay: Minimum Inhibitory Concentration (MIC) against Pseudomonas fluorescens; type: cell-based; conditions: Bacteria
Procedure: as §1

[7] = test system: Pseudomonas aeruginosa NCIB 10421; assay: Minimum Inhibitory Concentration (MIC) against Pseudomonas aeruginosa; type: cell-based; conditions: Bacteria
Procedure: as §1

[8] = test system: a range of fungi and bacteria; assay: MIC against a range of fungi and bacteria, overall statement; type: cell-based; conditions: summary of Table 3; compared to Comparative Example A or to the copolymers
Procedure: as §1

[9] = test system: Klebsiella pneumoniae ATCC 4352; assay: Minimum Inhibitory Concentration (MIC) against Klebsiella pneumoniae; type: cell-based; conditions: Bacteria
Procedure: as §1

NCCCCCCNc1ccc2c3c(cccc13)C(=O)N(CCCCCCN)C2=O [Marker 1, N-(6-aminohexyl)-4-(6-aminohexylamino)-1,8-naphthalimide]
MIC Ec [1]: 500 | MIC Sa [2]: 32 | MIC Ca [3]: 999 | MIC Pp [4]: 999 | MIC Bs [5]: 500 | MIC Ps.fl [6]: 500 | MIC Psa [7]: 999 | antimicrobial effect (MIC, in words) [8]: little or no antimicrobial effect | MIC K.pn [9]: 999 | melting point: 113.6 to 114.9 °C
